According to ChEMBL document CHEMBL1201862, “PubChem BioAssay data set” (2004):
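Protocol summary: plate cells (96-well), add compound at 5 concentrations, incubate 48 h, interpolate endpoints linearly. GI50: concentration for 50% inhibition of growth.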 Activity calls are given as the source filed them. Cut-off read from the data, not from the text of the source: active = GI50 up to about 1.1 µM and inactive = higher.

Legend:
Experiment in all cases: NCI anticancer screen, dose series, 48 h
ACHN = test system: ACHN
CCRF-CEM = test system: CCRF-CEM
HCC 2998 = test system: HCC 2998
HCT-15 = test system: HCT-15
HOP-62 = test system: HOP-62
K562 = test system: K562
KM12 = test system: KM12
M14 = test system: M14
Malme-3M = test system: Malme-3M
NCI-H460 = test system: NCI-H460
OVCAR-4 = test system: OVCAR-4
OVCAR-8 = test system: OVCAR-8
SF-295 = test system: SF-295
SK-MEL-2 = test system: SK-MEL-2
SK-MEL-5 = test system: SK-MEL-5
SNB-75 = test system: SNB-75
SW-620 = test system: SW-620
TK-10 = test system: TK-10
UACC-62 = test system: UACC-62
SR = test system: SR

| SMILES | GI50 (ACHN) | GI50 (CCRF-CEM) | GI50 (HCC 2998) | GI50 (HCT-15) [µM] | GI50 (HOP-62) | GI50 (K562) | GI50 (KM12) | GI50 (M14) | GI50 (Malme-3M) | GI50 (NCI-H460) | GI50 (OVCAR-4) | GI50 (OVCAR-8) | GI50 (SF-295) | GI50 (SK-MEL-2) | GI50 (SK-MEL-5) | GI50 (SNB-75) | GI50 (SW-620) | GI50 (TK-10) | GI50 (UACC-62) | GI50 (SR) |
| --- | --- | --- | --- | --- | --- | --- | --- | --- | --- | --- | --- | --- | --- | --- | --- | --- | --- | --- | --- | --- |
| O=C(O)CC(O)(C(=O)O)C(O)C(=O)O (stereo unspecified) | > 1000 µM (inactive) | > 1000 µM (inactive) | > 1000 µM (inactive) | > 1000 | > 1000 µM (inactive) | > 1000 µM (inactive) | > 1000 µM (inactive) | > 1000 µM (inactive) | > 1000 µM (inactive) | > 1000 µM (inactive) | > 1000 µM (inactive) | > 1000 µM (inactive) | > 1000 µM (inactive) | > 1000 µM (inactive) | 247 µM (inactive) | > 1000 µM (inactive) | > 1000 µM (inactive) | > 1000 µM (inactive) | 933 µM (inactive) | – |
| O=C1O[C@H](c2ccc3c(c2)OCO3)[C@H]2CO[C@@H](c3ccc4c(c3)OCO4)[C@@H]12 | > 100 µM (inactive) | – | > 100 µM (inactive) | > 100 | > 100 µM (inactive) | 60.1 µM (inactive) | > 100 µM (inactive) | > 100 µM (inactive) | > 100 µM (inactive) | > 100 µM (inactive) | 96.2 µM (inactive) | > 100 µM (inactive) | 60.1 µM (inactive) | > 100 µM (inactive) | 42 µM (inactive) | – | > 100 µM (inactive) | > 100 µM (inactive) | 88.5 µM (inactive) | 42.7 µM (inactive) |
| CC(C)Oc1c(O)c2c3c(oc(=O)n3C=CC2c2ccccc2F)c1OC(C)C (stereo unspecified) | 35.7 µM (inactive) | 24.8 µM (inactive) | – | 33 | 27.5 µM (inactive) | 30.5 µM (inactive) | 29.1 µM (inactive) | 24.8 µM (inactive) | 39.1 µM (inactive) | 25 µM (inactive) | 46 µM (inactive) | 41.8 µM (inactive) | 25.6 µM (inactive) | 15.5 µM (inactive) | 18.4 µM (inactive) | 20.7 µM (inactive) | 32.9 µM (inactive) | 40.6 µM (inactive) | 21.1 µM (inactive) | 16.7 µM (inactive) |
| COC1OC(C(C)O)C2OC(C)(C)OC12 (stereo unspecified) | > 100 µM (inactive) | > 100 µM (inactive) | – | > 100 | > 100 µM (inactive) | > 100 µM (inactive) | > 100 µM (inactive) | > 100 µM (inactive) | – | > 100 µM (inactive) | > 100 µM (inactive) | > 100 µM (inactive) | > 100 µM (inactive) | > 100 µM (inactive) | > 100 µM (inactive) | > 100 µM (inactive) | > 100 µM (inactive) | > 100 µM (inactive) | > 100 µM (inactive) | > 100 µM (inactive) |
| CCOC(=O)c1sc2nc(SC)nc3c2c1NCN3C | 18.7 µM (inactive) | > 100 µM (inactive) | 62.1 µM (inactive) | > 100 | 15.1 µM (inactive) | – | > 100 µM (inactive) | 76.9 µM (inactive) | 24.8 µM (inactive) | 32.1 µM (inactive) | 20.4 µM (inactive) | 10.7 µM (inactive) | 27.9 µM (inactive) | 86.1 µM (inactive) | 51.5 µM (inactive) | 5.78 µM (inactive) | – | 25 µM (inactive) | 42.7 µM (inactive) | – |
| Clc1ccc(CCn2cncn2)cc1 | > 100 µM (inactive) | > 100 µM (inactive) | – | > 100 | > 100 µM (inactive) | > 100 µM (inactive) | > 100 µM (inactive) | > 100 µM (inactive) | > 100 µM (inactive) | > 100 µM (inactive) | > 100 µM (inactive) | > 100 µM (inactive) | > 100 µM (inactive) | > 100 µM (inactive) | > 100 µM (inactive) | 86.3 µM (inactive) | > 100 µM (inactive) | > 100 µM (inactive) | > 100 µM (inactive) | > 100 µM (inactive) |
| O=C(/C=C/c1ccccc1O)/C=C/c1ccccc1O | 1.8 µM (inactive) | 0.305 µM (active) | – | 1.45 | 2.26 µM (inactive) | 0.611 µM (active) | 1.06 µM (active) | 1.71 µM (inactive) | 2.11 µM (inactive) | 1.35 µM (inactive) | 2.61 µM (inactive) | 2.26 µM (inactive) | 1.67 µM (inactive) | 9.25 µM (inactive) | 1.37 µM (inactive) | 3.9 µM (inactive) | 0.966 µM (active) | 1.21 µM (inactive) | 1.67 µM (inactive) | 0.526 µM (active) |
| COC(=O)C(CC(=O)c1cc2c(cc1I)OCO2)Cc1cc(OC)c(OC)c(OC)c1I (stereo unspecified) | 80.4 µM (inactive) | > 100 µM (inactive) | > 100 µM (inactive) | > 100 | > 100 µM (inactive) | > 100 µM (inactive) | 71.6 µM (inactive) | – | > 100 µM (inactive) | > 100 µM (inactive) | – | > 100 µM (inactive) | 16.8 µM (inactive) | > 100 µM (inactive) | 13.6 µM (inactive) | – | > 100 µM (inactive) | > 100 µM (inactive) | 37.2 µM (inactive) | 8.69 µM (inactive) |
| Nc1ccc(N)c2c1C(=O)c1ccccc1C2=O | 4.66 µM (inactive) | 32.1 µM (inactive) | 3.97 µM (inactive) | 4.41 | 5.01 µM (inactive) | 27.6 µM (inactive) | 4.54 µM (inactive) | 17.7 µM (inactive) | 24 µM (inactive) | 9.51 µM (inactive) | > 100 µM (inactive) | 76.2 µM (inactive) | – | 79.1 µM (inactive) | 15.8 µM (inactive) | > 100 µM (inactive) | 32.7 µM (inactive) | 4.08 µM (inactive) | 15.7 µM (inactive) | – |
| CC1=C(C(=O)NCc2ccccc2)C(c2ccc(N(C)C)cc2)C(C(=O)NCc2ccccc2)=C(C)N1 | > 100 µM (inactive) | > 100 µM (inactive) | > 100 µM (inactive) | – | > 100 µM (inactive) | > 100 µM (inactive) | > 100 µM (inactive) | > 100 µM (inactive) | > 100 µM (inactive) | > 100 µM (inactive) | > 100 µM (inactive) | > 100 µM (inactive) | > 100 µM (inactive) | > 100 µM (inactive) | > 100 µM (inactive) | 29.3 µM (inactive) | > 100 µM (inactive) | > 100 µM (inactive) | > 100 µM (inactive) | – |
| CC[C@@H]1CC[C@@H]2[C@H](CC[C@]3(C)[C@@H](OC(C)=O)CC[C@@H]23)[C@H]1COC(C)=O | 53.8 µM (inactive) | 20 µM (inactive) | 13.4 µM (inactive) | 23.9 | 30.4 µM (inactive) | 17.6 µM (inactive) | 24.3 µM (inactive) | 25.4 µM (inactive) | 18.4 µM (inactive) | 19.9 µM (inactive) | 22.5 µM (inactive) | 23 µM (inactive) | 25.2 µM (inactive) | 16.4 µM (inactive) | 18.3 µM (inactive) | 40.6 µM (inactive) | 31.8 µM (inactive) | > 100 µM (inactive) | 18.1 µM (inactive) | – |
| CSC1=N/C(=C\c2ccc(C)cc2)C(=O)N1CN1CCCCC1 | 59.6 µM (inactive) | – | – | 73.8 | > 100 µM (inactive) | 74 µM (inactive) | > 100 µM (inactive) | > 100 µM (inactive) | > 100 µM (inactive) | – | 22.4 µM (inactive) | > 100 µM (inactive) | > 100 µM (inactive) | > 100 µM (inactive) | > 100 µM (inactive) | 69.5 µM (inactive) | 44.7 µM (inactive) | > 100 µM (inactive) | > 100 µM (inactive) | 89.7 µM (inactive) |
| COc1ccc(C[C@@H]2OC3(C=CC(=O)CC3Sc3ccccc3)O[C@H]2Cc2ccc(OC)cc2)cc1 (stereo partly specified) | 1.36 µM (inactive) | 0.216 µM (active) | – | 0.993 | 0.432 µM (active) | 1.9 µM (inactive) | 2.11 µM (inactive) | 1.16 µM (inactive) | 1.85 µM (inactive) | 3.01 µM (inactive) | 1.6 µM (inactive) | 0.29 µM (active) | 1.91 µM (inactive) | 1.53 µM (inactive) | 1.37 µM (inactive) | 1.69 µM (inactive) | 0.303 µM (active) | 1.67 µM (inactive) | 2.15 µM (inactive) | 0.187 µM (active) |
| O=C1C[C@@]23CCC4(CC2CCC[C@H]3O1)OCCO4 (stereo partly specified) | > 100 µM (inactive) | – | > 100 µM (inactive) | > 100 | > 100 µM (inactive) | > 100 µM (inactive) | > 100 µM (inactive) | > 100 µM (inactive) | > 100 µM (inactive) | > 100 µM (inactive) | > 100 µM (inactive) | > 100 µM (inactive) | > 100 µM (inactive) | > 100 µM (inactive) | > 100 µM (inactive) | – | > 100 µM (inactive) | – | > 100 µM (inactive) | > 100 µM (inactive) |
| CC[C@@]12CCC(=S)N(CCSc3ccccc3)[C@@H]1c1c(n(S(=O)(=O)c3ccc(OC)cc3)c3ccccc13)CC2 | – | > 100 µM (inactive) | – | > 100 | > 100 µM (inactive) | > 100 µM (inactive) | > 100 µM (inactive) | > 100 µM (inactive) | > 100 µM (inactive) | > 100 µM (inactive) | – | > 100 µM (inactive) | > 100 µM (inactive) | > 100 µM (inactive) | > 100 µM (inactive) | 46.3 µM (inactive) | > 100 µM (inactive) | 52 µM (inactive) | > 100 µM (inactive) | > 100 µM (inactive) |
